We go through one compound from article PMC6934184, “Selective DNA-PKcs inhibition extends the therapeutic index of localized radiotherapy and chemotherapy” (The Journal of Clinical Investigation, 2019).

The structures appear in SMILES notation.

This experiment deals with T1, AKT3 (PKB gamma) (Homo sapiens, UniProt Q9Y243).
T1 construct: purchased Thermo Fisher Scientific (Life Technologies) SelectScreen
In words: SelectScreen Z'LYTE. Type of experiment: biochemical. The procedure, abridged: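 Percent values come from Thermo SelectScreen profiling of NU5455, combining activity and binding assays. CSF1R was run in Z'LYTE format at Km app ATP, and CAMK1 in Adapta format with ATP listed at 10.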

T1 sequence (Q9Y243 whole entry): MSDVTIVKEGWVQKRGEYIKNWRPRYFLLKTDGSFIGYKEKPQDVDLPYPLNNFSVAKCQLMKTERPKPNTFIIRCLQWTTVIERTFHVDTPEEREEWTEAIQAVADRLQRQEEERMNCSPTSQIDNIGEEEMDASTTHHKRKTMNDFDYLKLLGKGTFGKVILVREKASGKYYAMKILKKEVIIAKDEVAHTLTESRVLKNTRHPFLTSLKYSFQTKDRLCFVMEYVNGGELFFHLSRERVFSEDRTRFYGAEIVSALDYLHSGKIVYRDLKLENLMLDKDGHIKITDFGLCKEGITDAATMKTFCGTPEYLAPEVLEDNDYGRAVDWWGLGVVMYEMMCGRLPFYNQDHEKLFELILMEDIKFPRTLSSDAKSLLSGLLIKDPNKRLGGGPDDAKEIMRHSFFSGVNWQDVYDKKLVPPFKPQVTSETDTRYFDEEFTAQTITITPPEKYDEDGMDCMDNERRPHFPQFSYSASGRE

`CN(C(=O)CN1CCOCC1)c1ccc2sc3c(-c4cccc5c(=O)cc(N6CC7CCC(C6)O7)oc45)cccc3c2c1` [NU5455]: the inhibition – broadly, the relative decrease from the control value, in per cent – at 1 µM is -0.5%.
